Experiments:
[1] = test system: S. aureus MSSA-7 producing penicillinase PC-1; test: Broth microdilution MIC, S. aureus MSSA-7 PC-1; format: cell-based; settings: fixed 4 μg/mL piperacillin; CAMHB, 16-20 hours at 37° C.
Outline: (§1)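 CAMHB, CLSI broth microdilution; strains pre-grown 3-5 h. Compound 32–0.25 μg/ml (2-fold series) + fixed β-lactam 4 μg/ml overlay. 37° C, 16-20 h; MIC scored by eye.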

[2] = molecular target: T1, KPC-2 β-lactamase (Class A carbapenemase) (Klebsiella pneumoniae, UniProt Q9F663); test: β-Lactamase inhibition, KPC-2; format: biochemical; settings: imipenem substrate, 300 nm; 15 min preincubation at 37° C., PBS pH 7.4
T1 construct: made in house; host or cells: E. coli BL21(DE3)
Outline: (§2)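 Compounds are mixed with purified, untagged recombinant β-lactamase and held 15 min at 37 °C. Substrate is then added: nitrocefin (100 μM final) for OXA-1, imipenem for KPC-2, cefotaxime for SHV-5. Absorbance is followed immediately, and percent inhibition per concentration gives the IC50.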

[3] = molecular target: T2, VIM-2 metallo-β-lactamase (Class B) (Pseudomonas aeruginosa, UniProt Q9K2N0); test: β-Lactamase inhibition, VIM-2; format: biochemical; settings: nitrocefin 100 μM, 486 nm; 15 min preincubation at 37° C., PBS pH 7.4
T2 construct: made in house; host or cells: E. coli BL21(DE3)
Outline: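 Enzyme + inhibitor, 37 °C, 15 min; nitrocefin 100 μM final; A486 read for 10 min. % inhibition vs no-inhibitor wells per concentration; IC50 = concentration halving initial hydrolysis rate.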

[4] = test system: E. coli ESBL4 expressing CTX-M-15; test: Broth microdilution MIC, E. coli ESBL4 CTX-M-15; format: cell-based; settings: fixed 4 μg/mL ceftazidime; CAMHB, 16-20 hours at 37° C.
Outline: as §1

[5] = test system: K. pneumoniae A-1797 expressing KPC-2 and VIM-4; test: Broth microdilution MIC, K. pneumoniae A-1797 KPC-2/VIM-4; format: cell-based; settings: fixed 4 μg/mL meropenem; CAMHB, 16-20 hours at 37° C.
Outline: as §1

[6] = molecular target: T3, SHV-5 β-lactamase (Class A ESBL) (Klebsiella pneumoniae, UniProt P0A3M1); test: β-Lactamase inhibition, SHV-5; format: biochemical
T3 construct: made in house; host or cells: E. coli BL21(DE3)
Outline: as §2

[7] = test system: P. aeruginosa Ps296 expressing VIM-2; test: Broth microdilution MIC, P. aeruginosa Ps296 VIM-2; format: cell-based; settings: fixed 4 μg/mL meropenem; CAMHB, 16-20 hours at 37° C.
Outline: as §1

[8] = test system: K. pneumoniae 156319 expressing KPC-3; test: Broth microdilution MIC, K. pneumoniae 156319 KPC-3; format: cell-based; settings: fixed 4 μg/mL meropenem; CAMHB, 16-20 hours at 37° C.
Outline: as §1

[9] = molecular target: T4, p99 AmpC β-lactamase (Class C) (Enterobacter cloacae, UniProt P05364); test: β-Lactamase inhibition, p99 AmpC; format: biochemical
T4 construct: made in house; host or cells: E. coli BL21(DE3)

[10] = test system: E. cloacae 144200 expressing Class C P99 AmpC; test: Broth microdilution MIC, E. cloacae 144200 p99 AmpC; format: cell-based; settings: fixed 4 μg/mL ceftazidime; CAMHB, 16-20 hours at 37° C.
Outline: as §1

[11] = molecular target: T5, OXA-1 β-lactamase (Class D oxacillinase) (Escherichia coli, UniProt P13661); test: β-Lactamase inhibition, OXA-1; format: biochemical; settings: nitrocefin 100 μM, 486 nm; 15 min preincubation at 37° C., PBS pH 7.4
T5 construct: made in house; host or cells: E. coli BL21(DE3)
Outline: as §2

T1 sequence (Q9F663 25-293, looked up): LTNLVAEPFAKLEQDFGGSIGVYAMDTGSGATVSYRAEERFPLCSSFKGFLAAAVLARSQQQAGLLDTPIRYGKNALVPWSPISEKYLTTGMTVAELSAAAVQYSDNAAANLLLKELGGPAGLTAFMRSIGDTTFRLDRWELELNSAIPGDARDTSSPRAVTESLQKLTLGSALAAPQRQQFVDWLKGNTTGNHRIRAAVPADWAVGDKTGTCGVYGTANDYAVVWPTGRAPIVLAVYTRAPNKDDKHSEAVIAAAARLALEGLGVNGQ
T4 sequence (P05364 21-381): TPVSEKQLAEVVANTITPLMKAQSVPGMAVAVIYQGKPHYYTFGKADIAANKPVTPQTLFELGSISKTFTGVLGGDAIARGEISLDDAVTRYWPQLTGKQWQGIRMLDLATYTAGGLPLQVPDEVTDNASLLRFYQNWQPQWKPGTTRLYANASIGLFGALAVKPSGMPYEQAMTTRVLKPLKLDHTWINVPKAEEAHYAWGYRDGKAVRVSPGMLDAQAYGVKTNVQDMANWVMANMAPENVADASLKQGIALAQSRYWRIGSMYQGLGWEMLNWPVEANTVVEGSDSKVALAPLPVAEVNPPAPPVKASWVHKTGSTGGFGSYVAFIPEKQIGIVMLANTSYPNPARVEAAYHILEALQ
T5 sequence (P13661 26-276): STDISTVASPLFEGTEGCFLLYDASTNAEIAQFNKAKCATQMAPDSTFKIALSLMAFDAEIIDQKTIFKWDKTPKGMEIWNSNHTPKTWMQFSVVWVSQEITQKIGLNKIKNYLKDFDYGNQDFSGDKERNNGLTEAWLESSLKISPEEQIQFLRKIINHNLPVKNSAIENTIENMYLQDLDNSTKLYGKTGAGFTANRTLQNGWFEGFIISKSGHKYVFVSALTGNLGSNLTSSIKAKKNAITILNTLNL
T3 sequence (P0A3M1 22-286): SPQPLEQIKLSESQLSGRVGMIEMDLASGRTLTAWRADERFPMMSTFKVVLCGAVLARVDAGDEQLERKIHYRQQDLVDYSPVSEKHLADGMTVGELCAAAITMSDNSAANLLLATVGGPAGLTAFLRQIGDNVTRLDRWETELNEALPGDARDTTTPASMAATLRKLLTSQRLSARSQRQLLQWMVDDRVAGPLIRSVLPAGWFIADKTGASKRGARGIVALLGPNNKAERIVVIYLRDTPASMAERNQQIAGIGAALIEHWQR

Structure (SMILES) | MIC of example compound in presence of fixed β-lactam: Fixed Pip, S. aureus MSSA-7 PC-1 [1] | IC50 [2] | IC50 [3] | MIC of example compound in presence of fixed β-lactam: Fixed CAZ, E. coli ESBL4 CTX-M-15 [4] | MIC of example compound in presence of fixed β-lactam: Fixed Mero, K. P. A-1797 KPC-2 VIM-4 [5] | IC50 [6] | MIC of example compound in presence of fixed β-lactam: Fixed Mero, P. aerug. Ps296 VIM-2 [7] | MIC of example compound in presence of fixed β-lactam: Fixed Mero, K. P. 156319 KPC-3 [8] | IC50 [9] | MIC of example compound in presence of fixed β-lactam: Fixed CAZ, E. cl. 144200 p99 AmpC [10] | IC50 [11]
N[C@H]1CCCN(CC(=O)N[C@H]2Cc3cccc(C(=O)O)c3OB2O)C1 [Example 11, 3-[2-(S-3-Amino-piperidin-1-yl)-acetylamino]-2-hydroxy-3,4-dihydro-2H-benzo[e][1,2]oxaborinine-8-carboxylic acid] | A (an MIC of the fixed β-lactam antibiotic in the presence of >32 μg/mL of a β-lactamase inhibitor) | 100 to 1000 nM | 1000 to 10000 nM | C (the MIC in the presence of <4 μg/mL of a β-lactamase inhibitor) | A (an MIC of the fixed β-lactam antibiotic in the presence of >32 μg/mL of a β-lactamase inhibitor) | < 100 nM | A (an MIC of the fixed β-lactam antibiotic in the presence of >32 μg/mL of a β-lactamase inhibitor) | C (the MIC in the presence of <4 μg/mL of a β-lactamase inhibitor) | < 100 nM | C (the MIC in the presence of <4 μg/mL of a β-lactamase inhibitor) | 100 to 1000 nM
O=C(CCN1CCNCC1)N[C@H]1Cc2cccc(C(=O)O)c2OB1O [Example 23, 2-Hydroxy-3-(3-piperazin-1-yl-propionylamino)-3,4-dihydro-2H-benzo[e][1,2]oxaborinine-8-carboxylic acid] | C (the MIC in the presence of <4 μg/mL of a β-lactamase inhibitor) | < 100 nM | 1000 to 10000 nM | C (the MIC in the presence of <4 μg/mL of a β-lactamase inhibitor) | B (the MIC in the presence of between 8 and 32 μg/mL of a β-lactamase inhibitor) | < 100 nM | B (the MIC in the presence of between 8 and 32 μg/mL of a β-lactamase inhibitor) | C (the MIC in the presence of <4 μg/mL of a β-lactamase inhibitor) | < 100 nM | C (the MIC in the presence of <4 μg/mL of a β-lactamase inhibitor) | < 100 nM
COC1CN(CC(=O)N[C@H]2Cc3cccc(C(=O)O)c3OB2O)CCC1N (stereo partly drawn) [Example 21, 3-[2-(4-Amino-3-methoxy-piperidin-1-yl)-acetylamino]-2-hydroxy-3,4-dihydro-2H-benzo[e][1,2]oxaborinine-8-carboxylic acid] | C (the MIC in the presence of <4 μg/mL of a β-lactamase inhibitor) | 100 to 1000 nM | 1000 to 10000 nM | C (the MIC in the presence of <4 μg/mL of a β-lactamase inhibitor) | A (an MIC of the fixed β-lactam antibiotic in the presence of >32 μg/mL of a β-lactamase inhibitor) | < 100 nM | B (the MIC in the presence of between 8 and 32 μg/mL of a β-lactamase inhibitor) | C (the MIC in the presence of <4 μg/mL of a β-lactamase inhibitor) | < 100 nM | C (the MIC in the presence of <4 μg/mL of a β-lactamase inhibitor) | < 100 nM
